The test system of the test is MCH receptors. Nature of the test: MCH receptor activity class (method not given).
Setting [1] is: MCH receptor activity class 1-3 (percent of control at 10^-7 M or IC50).
[2] abbreviates: class by percent of control at 10^-7 M or IC50.

Consider `Cc1cccc(C)c1NC(=O)NC[C@H]1CC[C@@H](Nc2nc3c(c(N(C)C)n2)CCCC3)CC1` [compound 2452], for which the class under setting [1] is recorded as 1 (Class 1: The value of percent of control at 10^−7 M was less than 40% or the value of IC50 was less than 50 nM.).
As to `CN(C)c1nc(N[C@H]2CC[C@@H](CNC(=O)Nc3ccc(F)cc3F)CC2)nc2c1CCCC2` [compound 2453], under setting [1], the class is 2 (Class 2: The value of percent of control at 10^−7 M was from 40% to 60% or the value of IC′50 was from 50 nM to 200 nM.).
Take `CCc1cccc(C)c1NC(=O)NC[C@H]1CC[C@@H](Nc2nc3c(c(N(C)C)n2)CCCC3)CC1` [compound 2454]: the class under setting [1] is 1 (Class 1: The value of percent of control at 10^−7 M was less than 40% or the value of IC50 was less than 50 nM.).
Take `CN(C)c1nc(N[C@H]2CC[C@@H](CNC(=O)Nc3ccc(F)cc3)CC2)nc2c1CCCC2` [compound 2456]: the class under setting [1] is 2 (Class 2: The value of percent of control at 10^−7 M was from 40% to 60% or the value of IC′50 was from 50 nM to 200 nM.).
Regarding `CSc1ccc(NC(=O)NC[C@H]2CC[C@@H](Nc3nc4c(c(N(C)C)n3)CCCC4)CC2)cc1` [compound 2457], under setting [1], the class is 3 (Class 3 The value of percent of control at 10^−7 M was more than 60% or the value of IC50 was more than 200 nM.).
On to `CN(C)c1nc(N[C@H]2CC[C@@H](CNC(=O)Nc3ccccc3C(F)(F)F)CC2)nc2c1CCCC2` [compound 2458], for which the class under setting [1] is 3 (Class 3 The value of percent of control at 10^−7 M was more than 60% or the value of IC50 was more than 200 nM.).
Consider `Cc1cc(C)c(NC(=O)NC[C@H]2CC[C@@H](Nc3nc4c(c(N(C)C)n3)CCCC4)CC2)c(C)c1` [compound 2459], for which, under setting [1], the class is reported as 1 (Class 1: The value of percent of control at 10^−7 M was less than 40% or the value of IC50 was less than 50 nM.).
For the compound `Cc1ccccc1NC(=O)NC[C@H]1CC[C@@H](Nc2nc3c(c(N(C)C)n2)CCCC3)CC1` [compound 2460], the class under setting [1] was 3 (Class 3 The value of percent of control at 10^−7 M was more than 60% or the value of IC50 was more than 200 nM.).
On to `CN(C)c1nc(N[C@H]2CC[C@@H](CNC(=O)Nc3c(Cl)cc(Cl)cc3Cl)CC2)nc2c1CCCC2` [compound 2461], for which the class under setting [1] is reported as 1 (Class 1: The value of percent of control at 10^−7 M was less than 40% or the value of IC50 was less than 50 nM.).
As for `CN(C)c1nc(N[C@H]2CC[C@@H](CNC(=O)Nc3c(Br)cc(Br)cc3Br)CC2)nc2c1CCCC2` [compound 2462], the class under setting [1] is given as 1 (Class 1: The value of percent of control at 10^−7 M was less than 40% or the value of IC50 was less than 50 nM.).
On the same count and under the same terms, under `CN(C)c1nc(N[C@H]2CC[C@@H](CNC(=O)Nc3c(F)cc(Br)cc3Br)CC2)nc2c1CCCC2` [compound 2463] stands 3 (Class 3 The value of percent of control at 10^−7 M was more than 60% or the value of IC50 was more than 200 nM.); under `CCc1cccc(CC)c1NC(=O)NC[C@H]1CC[C@@H](Nc2nc3c(c(N(C)C)n2)CCCC3)CC1` [compound 2464], 1 (Class 1: The value of percent of control at 10^−7 M was less than 40% or the value of IC50 was less than 50 nM.); under `CN(C)c1nc(N[C@H]2CC[C@@H](CNC(=O)Nc3c(Cl)cccc3C(F)(F)F)CC2)nc2c1CCCC2` [compound 2465], 1 (Class 1: The value of percent of control at 10^−7 M was less than 40% or the value of IC50 was less than 50 nM.).
In the case of `Cc1cccc(Cl)c1NC(=O)NC[C@H]1CC[C@@H](Nc2nc3c(c(N(C)C)n2)CCCC3)CC1` [compound 2466, N-(2-chloro-6-methylphenyl)-N′-[(cis-4-{[4-(dimethylamino)-5,6,7,8-tetrahydroquinazolin-2-yl]amino}cyclohexyl)methyl]urea], the class under setting [1] is recorded as 1 (Class 1: The value of percent of control at 10^−7 M was less than 40% or the value of IC50 was less than 50 nM.).
Take `CN(C)c1nc(N[C@H]2CC[C@@H](CNC(=O)NCc3ccccc3Cl)CC2)nc2c1CCCC2` [compound 2467]: under setting [1], the class was 3 (Class 3 The value of percent of control at 10^−7 M was more than 60% or the value of IC50 was more than 200 nM.).
Regarding `CCc1cccc(C(C)C)c1NC(=O)NC[C@H]1CC[C@@H](Nc2nc3c(c(N(C)C)n2)CCCC3)CC1` [compound 2468], under setting [1], the class is recorded as 1 (Class 1: The value of percent of control at 10^−7 M was less than 40% or the value of IC50 was less than 50 nM.).
Take `CCc1ccccc1NC(=O)NC[C@H]1CC[C@@H](Nc2nc3c(c(N(C)C)n2)CCCC3)CC1` [compound 2469]: the class under setting [1] was 3 (Class 3 The value of percent of control at 10^−7 M was more than 60% or the value of IC50 was more than 200 nM.).
For the compound `CN(C)c1nc(N[C@H]2CC[C@@H](CNC(=O)Nc3ccccc3I)CC2)nc2c1CCCC2` [compound 2470], under setting [1], the class is 3 (Class 3 The value of percent of control at 10^−7 M was more than 60% or the value of IC50 was more than 200 nM.).
Regarding `Cc1cccc(C(C)C)c1NC(=O)NC[C@H]1CC[C@@H](Nc2nc3c(c(N(C)C)n2)CCCC3)CC1` [compound 2471], the class under setting [1] is reported as 2 (Class 2: The value of percent of control at 10^−7 M was from 40% to 60% or the value of IC′50 was from 50 nM to 200 nM.).
The same measure, in the same setting: under `CC(C)c1ccccc1NC(=O)NC[C@H]1CC[C@@H](Nc2nc3c(c(N(C)C)n2)CCCC3)CC1` [compound 2472] stands 3 (Class 3 The value of percent of control at 10^−7 M was more than 60% or the value of IC50 was more than 200 nM.).
On the same count and under the same terms, to `Cc1c(NC(=O)NC[C@H]2CC[C@@H](Nc3nc4c(c(N(C)C)n3)CCCC4)CC2)cccc1[N+](=O)[O-]` [compound 2473] belongs 3 (Class 3 The value of percent of control at 10^−7 M was more than 60% or the value of IC50 was more than 200 nM.); to `CCCc1ccccc1NC(=O)NC[C@H]1CC[C@@H](Nc2nc3c(c(N(C)C)n2)CCCC3)CC1` [compound 2474], 3 (Class 3 The value of percent of control at 10^−7 M was more than 60% or the value of IC50 was more than 200 nM.); to `Cc1cccc(C(C)(C)C)c1NC(=O)NC[C@H]1CC[C@@H](Nc2nc3c(c(N(C)C)n2)CCCC3)CC1` [compound 2475, N-(2-tert-butyl-6-methylphenyl)-N′-[(cis-4-{[4-(dimethylamino)-5,6,7,8-tetrahydroquinazolin-2-yl]amino}cyclohexyl)methyl]urea], 1 (Class 1: The value of percent of control at 10^−7 M was less than 40% or the value of IC50 was less than 50 nM.).
On the same count and under the same terms, under `CN(C)c1nc(N[C@H]2CC[C@@H](CNC(=O)Nc3ccccc3C(C)(C)C)CC2)nc2c1CCCC2` [compound 2476] stands 2 (Class 2: The value of percent of control at 10^−7 M was from 40% to 60% or the value of IC′50 was from 50 nM to 200 nM.); under `Cc1c(Cl)cccc1NC(=O)NC[C@H]1CC[C@@H](Nc2nc3c(c(N(C)C)n2)CCCC3)CC1` [compound 2477], 2 (Class 2: The value of percent of control at 10^−7 M was from 40% to 60% or the value of IC′50 was from 50 nM to 200 nM.); under `CN(C)c1nc(N[C@H]2CC[C@@H](CNC(=O)Nc3c(F)cc(Br)cc3F)CC2)nc2c1CCCC2` [compound 2478], 3 (Class 3 The value of percent of control at 10^−7 M was more than 60% or the value of IC50 was more than 200 nM.).
In the case of `CN(C)c1nc(N[C@H]2CC[C@@H](CNC(=O)Nc3ccc(Cl)cc3C(F)(F)F)CC2)nc2c1CCCC2` [compound 2479], under setting [1], the class is 3 (Class 3 The value of percent of control at 10^−7 M was more than 60% or the value of IC50 was more than 200 nM.).
As to `CN(C)c1nc(N[C@H]2CC[C@@H](CNC(=O)Nc3ccc(C#N)cc3)CC2)nc2c1CCCC2` [compound 2480], the class under setting [1] is 3 (Class 3 The value of percent of control at 10^−7 M was more than 60% or the value of IC50 was more than 200 nM.).
As for `CN(C)c1nc(N[C@H]2CC[C@@H](CNC(=O)NC(c3ccccc3)c3ccccc3)CC2)nc2c1CCCC2` [compound 2481], under setting [1], the class is listed as 3 (Class 3 The value of percent of control at 10^−7 M was more than 60% or the value of IC50 was more than 200 nM.).
Consider `Cc1cc(Br)cc(C)c1NC(=O)NC[C@H]1CC[C@@H](Nc2nc3c(c(N(C)C)n2)CCCC3)CC1` [compound 2482, N-(4-bromo-2,6-dimethylphenyl)-N′-[(cis-4-{[4-(dimethylamino)-5,6,7,8-tetrahydroquinazolin-2-yl]amino}cyclohexyl)methyl]urea], for which, under setting [2], the class is 1 (Class 1: The value of percent of control at 10^−7 M was less than 40% or the value of IC50 was less than 50 nM.).
As to `Cc1noc(-c2ccccc2)c1NC(=O)NC[C@H]1CC[C@@H](Nc2nc3c(c(N(C)C)n2)CCCC3)CC1` [compound 2483], the class under setting [2] is given as 3 (Class 3 The value of percent of control at 10^−7 M was more than 60% or the value of IC50 was more than 200 nM.).
On to `Cc1cc(NC(=O)NC[C@H]2CC[C@@H](Nc3nc4c(c(N(C)C)n3)CCCC4)CC2)c(C(F)(F)F)o1` [compound 2484], for which the class under setting [2] is given as 3 (Class 3 The value of percent of control at 10^−7 M was more than 60% or the value of IC50 was more than 200 nM.).
Take `CN(C)c1nc(N[C@H]2CC[C@@H](CNC(=O)Nc3cc(Cl)cc(Cl)c3)CC2)nc2c1CCCC2` [compound 2485]: the class under setting [2] is 3 (Class 3 The value of percent of control at 10^−7 M was more than 60% or the value of IC50 was more than 200 nM.).
For the compound `CN(C)c1nc(N[C@H]2CC[C@@H](CNC(=O)Nc3cccc(Cl)c3Cl)CC2)nc2c1CCCC2` [compound 2486], the class under setting [2] is 3 (Class 3 The value of percent of control at 10^−7 M was more than 60% or the value of IC50 was more than 200 nM.).
Consider `Cc1ccc(NC(=O)NC[C@H]2CC[C@@H](Nc3nc4c(c(N(C)C)n3)CCCC4)CC2)cc1` [compound 2487], for which, under setting [2], the class is 3 (Class 3 The value of percent of control at 10^−7 M was more than 60% or the value of IC50 was more than 200 nM.).
Take `CC(C)c1cccc(C(C)C)c1NC(=O)NC[C@H]1CC[C@@H](Nc2nc3c(c(N(C)C)n2)CCCC3)CC1` [compound 2488, N-(2,6-diisopropylphenyl)-N′-[(cis-4-{[4-(dimethylamino)-5,6,7,8-tetrahydroquinazolin-2-yl]amino}cyclohexyl)methyl]urea]: under setting [2], the class was 2 (Class 2: The value of percent of control at 10^−7 M was from 40% to 60% or the value of IC′50 was from 50 nM to 200 nM.).

The values are drawn from patent US20050197350A1, “Novel quinoline, tetrahydroquinazoline, and pyrimidine derivatives and methods of treatment related to the use thereof” (TAISHO PHARMACEUTICAL CO., LTD., priority 2003, published 2005).
